Assay results taken from patent US9029127B2, “Method of degrading TBP using a photosynthetic bacterial strain” (priority 2003, dated 2015).

Legend:
[1] = test system: Serratia odorifera sp.; experiment: Effect of carbon monoxide on growth and TBP degradation of Serratia odorifera; type: cell-based; conditions: aerobiosis; for effect of CO on growth: Tsb medium
[2] = test system: Rp. palustris CGA009 (ATCC BAA-98); experiment: Effect of the cytochrome P450 inhibitor carbon monoxide on growth and TBP degradation of Rp. palustris; conditions: for effect of CO on growth: photosynthetic conditions, Hutner medium
[3] = test system: proteins extracted from Rp. palustris CGA009; type: biochemical, Rhodopseudomonas palustris
[4] = test system: Rp. palustris; experiment: Growth of wild-type Rp. palustris in the presence of gentamycin; type: cell-based, Rhodopseudomonas palustris; conditions: gentamycin 50 μg·ml^−1
[5] = test system: Rp. palustris ΔpRpa1; type: cell-based, Rhodopseudomonas palustris

Compound: [C-]#[O+] [CO, carbon monoxide]
- effect of CO on TBP degradation yield ([1]; 2 mM TBP): does not significantly modify
- effect of CO on growth ([1]; 2 mM TBP present): nor does it affect the growth
- effect of CO on growth ([1]; TBP absent): does not affect the growth
- effect of CO on growth ([2]; 2 mM TBP present): greatly reduced
- effect of CO on growth ([2]; TBP absent): does not affect the growth
- effect of CO on TBP degradation ([2]; residual TBP after 21 days of culture, 2 mM TBP): considerable decrease in TBP degradation

Compound: Cc1cc2c(cc1C)N(C[C@H](O)[C@H](O)[C@H](O)COP(=O)(O)OP(=O)(O)OC[C@H]1O[C@@H](n3cnc4c(N)ncnc43)[C@H](O)[C@@H]1O)c1[nH]c(=O)[nH]c(=O)c1N2 [FADH2]
- effect of cofactor on TBP degradation [3]: does not significantly enhance

Compound: NC(=O)C1=CN([C@@H]2O[C@H](COP(=O)(O)OP(=O)(O)OC[C@H]3O[C@@H](n4cnc5c(N)ncnc54)[C@H](O)[C@@H]3O)[C@@H](O)[C@H]2O)C=CC1 [NADH]
- effect of cofactor on TBP degradation [3]: does not significantly enhance

Compound: gentamycin
- resistance of the strain to the antibiotic [4]: naturally resistant
- growth in the presence of the antibiotic [5]: grows in the presence of this antibiotic
